Data: article PMC7206119, “RIP1 inhibition blocks inflammatory diseases but not tumor growth or metastases” (Cell Death and Differentiation, 2019)

Experiments:
Assay in all cases: biochemical
Parameters in all cases: Thermo Fisher SelectScreen kinase panel: Z'-LYTE and Adapta activity, LanthaScreen binding
p70S6K = target: T1, p70S6K (Homo sapiens, UniProt P23443)
T1 construct: gene RPS6KB1
Method: (§1) 5 88 GNE684 was tested in Thermo Fisher Scientific SelectScreen assay (Madison, WI) 89 against 221 representative kinases at a concentration of 10 µM, which is 476-fold greater than the Ki app 90 for GNE684 against human RIP1 in the RIP1 enzyme 91 assay. The kinase assays were carried out using Z'-LYTE and Adapta activity and 92 LanthaScreen binding assays (Thermo Fisher Scientific, Madison WI) following 93 protocols developed and performed by Thermo Fisher Scientific 94 (https://www.thermofisher.com/us/en/home/products-and-services/services/custom-95 services/screening-and-profiling-services/selectscreen-profiling-service/selectscreen-96 kinase-profiling-service.html). 97 GNE684 was also tested against 468 kinases in the KINOMEscan scanMAX kinase 98 binding assay panel at a concentration of 10 µM following protocols developed and 99 performed by DiscoverX (http://www.discoverx.com/kinase_profiling).

TYK2 = TYK2 (Homo sapiens, UniProt P29597)
Method: as §1

MEK1 = target: T2, MEK1 (Homo sapiens, UniProt Q02750)
T2 construct: gene MAP2K1
Method: as §1

EGFR = EGFR (Homo sapiens, UniProt P00533)
Method: as §1

MAPKAPK2 = MAPKAPK2 (Homo sapiens, UniProt P49137)
Method: as §1

CSK = CSK (Homo sapiens, UniProt P41240)
Method: as §1

FLT3 = FLT3 (Homo sapiens, UniProt P36888)
Method: as §1

p38-gamma = target: T3, p38-gamma (Homo sapiens, UniProt P53778)
T3 construct: gene MAPK12
Method: as §1

MST2 = target: T4, MST2 (Homo sapiens, UniProt Q13188)
T4 construct: gene STK3
Method: as §1

EPHA1 = EPHA1 (Homo sapiens, UniProt P21709)
Method: as §1

LRRK2 = LRRK2 (Homo sapiens, UniProt Q5S007)
Method: as §1

PKC_zeta = target: T5, PKC_zeta (Homo sapiens, UniProt Q05513)
T5 construct: gene PRKCZ
Method: as §1

CDK1/cyclinB = CDK1/cyclinB (Homo sapiens, UniProt P06493)
Method: as §1

TTK = TTK (Homo sapiens, UniProt P33981)
Method: as §1

PRAK = target: T6, PRAK (Homo sapiens, UniProt Q8IW41)
T6 construct: gene MAPKAPK5
Method: as §1

HIPK1 = HIPK1 (Homo sapiens, UniProt Q86Z02)
Method: as §1

GSK3_alpha = target: T7, GSK3_alpha (Homo sapiens, UniProt P49840)
T7 construct: gene GSK3A
Method: as §1

RIPK2 = RIPK2 (Homo sapiens, UniProt O43353)
Method: as §1

DNA-PK = target: T8, DNA-PK (Homo sapiens, UniProt P78527)
T8 construct: gene PRKDC
Method: as §1

NEK4 = NEK4 (Homo sapiens, UniProt P51957)
Method: as §1

MARK1 = MARK1 (Homo sapiens, UniProt Q9P0L2)
Method: as §1

AKT2 = AKT2 (Homo sapiens, UniProt P31751)
Method: as §1

EPHA3 = EPHA3 (Homo sapiens, UniProt P29320)
Method: as §1

EPHA1, sequence (P21709 whole entry): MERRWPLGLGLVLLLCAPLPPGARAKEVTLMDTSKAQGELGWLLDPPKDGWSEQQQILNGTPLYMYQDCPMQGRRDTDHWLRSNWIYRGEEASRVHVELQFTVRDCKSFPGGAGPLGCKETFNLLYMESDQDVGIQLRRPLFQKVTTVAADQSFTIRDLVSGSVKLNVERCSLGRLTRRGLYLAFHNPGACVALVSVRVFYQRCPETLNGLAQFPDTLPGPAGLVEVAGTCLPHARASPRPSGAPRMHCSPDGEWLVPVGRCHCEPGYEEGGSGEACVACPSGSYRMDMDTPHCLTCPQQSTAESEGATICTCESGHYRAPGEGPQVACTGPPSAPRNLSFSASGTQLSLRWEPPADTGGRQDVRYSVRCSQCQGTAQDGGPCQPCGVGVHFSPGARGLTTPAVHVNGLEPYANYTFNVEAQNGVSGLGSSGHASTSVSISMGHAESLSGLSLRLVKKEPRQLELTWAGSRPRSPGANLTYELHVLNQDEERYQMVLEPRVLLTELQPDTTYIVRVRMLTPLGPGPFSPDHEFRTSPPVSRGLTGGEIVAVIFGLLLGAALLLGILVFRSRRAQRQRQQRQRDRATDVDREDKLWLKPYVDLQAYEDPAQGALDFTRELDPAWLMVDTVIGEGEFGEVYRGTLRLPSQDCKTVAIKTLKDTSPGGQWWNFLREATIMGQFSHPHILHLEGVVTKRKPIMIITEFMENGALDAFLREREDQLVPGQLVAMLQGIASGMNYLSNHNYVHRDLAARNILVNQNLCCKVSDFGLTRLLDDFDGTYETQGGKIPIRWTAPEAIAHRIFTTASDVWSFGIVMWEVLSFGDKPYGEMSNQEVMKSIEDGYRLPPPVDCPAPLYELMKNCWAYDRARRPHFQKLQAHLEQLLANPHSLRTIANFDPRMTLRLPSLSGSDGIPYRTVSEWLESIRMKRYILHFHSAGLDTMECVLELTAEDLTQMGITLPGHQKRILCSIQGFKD
TYK2, sequence (P29597 whole entry): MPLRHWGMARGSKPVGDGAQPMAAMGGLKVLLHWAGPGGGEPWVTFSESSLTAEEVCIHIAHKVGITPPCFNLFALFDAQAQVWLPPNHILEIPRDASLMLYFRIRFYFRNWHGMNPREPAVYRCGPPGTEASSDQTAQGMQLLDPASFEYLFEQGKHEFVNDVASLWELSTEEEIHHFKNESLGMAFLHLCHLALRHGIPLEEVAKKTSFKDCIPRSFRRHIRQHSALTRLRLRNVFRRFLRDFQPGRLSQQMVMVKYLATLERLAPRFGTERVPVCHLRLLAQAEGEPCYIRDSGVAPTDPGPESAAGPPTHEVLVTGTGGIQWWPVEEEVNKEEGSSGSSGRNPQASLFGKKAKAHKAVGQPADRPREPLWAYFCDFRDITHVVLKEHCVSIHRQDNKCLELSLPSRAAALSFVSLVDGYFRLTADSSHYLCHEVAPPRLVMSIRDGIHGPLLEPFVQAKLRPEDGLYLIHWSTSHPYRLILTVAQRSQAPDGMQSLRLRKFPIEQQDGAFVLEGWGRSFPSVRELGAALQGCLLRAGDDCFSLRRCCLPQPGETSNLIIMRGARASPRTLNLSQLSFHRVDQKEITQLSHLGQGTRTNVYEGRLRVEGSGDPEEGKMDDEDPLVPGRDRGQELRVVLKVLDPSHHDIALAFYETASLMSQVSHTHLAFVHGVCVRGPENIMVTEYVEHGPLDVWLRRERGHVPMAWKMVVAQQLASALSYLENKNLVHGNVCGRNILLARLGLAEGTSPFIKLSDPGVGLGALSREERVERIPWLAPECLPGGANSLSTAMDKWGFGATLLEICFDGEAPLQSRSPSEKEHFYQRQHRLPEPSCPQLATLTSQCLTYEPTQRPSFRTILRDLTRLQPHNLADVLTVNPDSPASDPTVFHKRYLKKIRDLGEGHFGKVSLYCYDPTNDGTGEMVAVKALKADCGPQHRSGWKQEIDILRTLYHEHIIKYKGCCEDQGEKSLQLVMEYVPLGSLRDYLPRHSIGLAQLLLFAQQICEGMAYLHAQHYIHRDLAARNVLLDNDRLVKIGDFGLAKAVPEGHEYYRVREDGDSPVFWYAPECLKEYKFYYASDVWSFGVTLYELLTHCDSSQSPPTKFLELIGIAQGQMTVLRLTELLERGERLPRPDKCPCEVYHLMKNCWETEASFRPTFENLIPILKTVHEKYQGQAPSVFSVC
MARK1, sequence (Q9P0L2 whole entry): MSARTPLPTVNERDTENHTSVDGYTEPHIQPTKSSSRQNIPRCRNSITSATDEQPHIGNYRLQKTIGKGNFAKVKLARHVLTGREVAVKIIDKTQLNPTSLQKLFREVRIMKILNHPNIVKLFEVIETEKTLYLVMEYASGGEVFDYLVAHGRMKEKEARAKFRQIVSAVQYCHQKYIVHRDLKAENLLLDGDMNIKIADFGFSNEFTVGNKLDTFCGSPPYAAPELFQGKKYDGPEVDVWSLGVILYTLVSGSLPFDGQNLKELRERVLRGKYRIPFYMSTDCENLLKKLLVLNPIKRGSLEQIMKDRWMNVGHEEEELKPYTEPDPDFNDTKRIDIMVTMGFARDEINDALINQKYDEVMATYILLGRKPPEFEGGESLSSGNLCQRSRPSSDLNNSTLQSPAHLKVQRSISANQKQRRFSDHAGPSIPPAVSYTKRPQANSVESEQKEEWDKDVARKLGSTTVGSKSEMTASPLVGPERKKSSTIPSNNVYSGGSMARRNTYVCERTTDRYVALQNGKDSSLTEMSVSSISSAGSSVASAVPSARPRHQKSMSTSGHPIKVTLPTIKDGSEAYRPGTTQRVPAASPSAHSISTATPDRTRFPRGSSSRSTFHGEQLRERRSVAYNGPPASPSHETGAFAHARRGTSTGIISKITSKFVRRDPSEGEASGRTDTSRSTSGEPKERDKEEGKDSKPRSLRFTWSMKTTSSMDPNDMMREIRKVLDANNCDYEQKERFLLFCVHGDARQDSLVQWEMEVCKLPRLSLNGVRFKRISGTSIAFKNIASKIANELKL
CSK, sequence (P41240 whole entry): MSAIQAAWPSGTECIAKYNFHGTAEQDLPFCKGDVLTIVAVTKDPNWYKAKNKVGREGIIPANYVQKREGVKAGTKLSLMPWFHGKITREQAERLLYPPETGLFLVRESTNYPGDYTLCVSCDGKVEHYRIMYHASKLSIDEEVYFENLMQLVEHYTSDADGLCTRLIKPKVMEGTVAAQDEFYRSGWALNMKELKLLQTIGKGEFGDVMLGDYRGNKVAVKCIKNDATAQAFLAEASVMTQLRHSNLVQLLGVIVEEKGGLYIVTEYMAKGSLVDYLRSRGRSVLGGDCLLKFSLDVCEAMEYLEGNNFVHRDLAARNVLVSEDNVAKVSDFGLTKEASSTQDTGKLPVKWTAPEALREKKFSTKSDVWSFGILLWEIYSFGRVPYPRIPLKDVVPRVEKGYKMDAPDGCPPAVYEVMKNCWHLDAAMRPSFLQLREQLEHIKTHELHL
EPHA3, sequence (P29320 whole entry): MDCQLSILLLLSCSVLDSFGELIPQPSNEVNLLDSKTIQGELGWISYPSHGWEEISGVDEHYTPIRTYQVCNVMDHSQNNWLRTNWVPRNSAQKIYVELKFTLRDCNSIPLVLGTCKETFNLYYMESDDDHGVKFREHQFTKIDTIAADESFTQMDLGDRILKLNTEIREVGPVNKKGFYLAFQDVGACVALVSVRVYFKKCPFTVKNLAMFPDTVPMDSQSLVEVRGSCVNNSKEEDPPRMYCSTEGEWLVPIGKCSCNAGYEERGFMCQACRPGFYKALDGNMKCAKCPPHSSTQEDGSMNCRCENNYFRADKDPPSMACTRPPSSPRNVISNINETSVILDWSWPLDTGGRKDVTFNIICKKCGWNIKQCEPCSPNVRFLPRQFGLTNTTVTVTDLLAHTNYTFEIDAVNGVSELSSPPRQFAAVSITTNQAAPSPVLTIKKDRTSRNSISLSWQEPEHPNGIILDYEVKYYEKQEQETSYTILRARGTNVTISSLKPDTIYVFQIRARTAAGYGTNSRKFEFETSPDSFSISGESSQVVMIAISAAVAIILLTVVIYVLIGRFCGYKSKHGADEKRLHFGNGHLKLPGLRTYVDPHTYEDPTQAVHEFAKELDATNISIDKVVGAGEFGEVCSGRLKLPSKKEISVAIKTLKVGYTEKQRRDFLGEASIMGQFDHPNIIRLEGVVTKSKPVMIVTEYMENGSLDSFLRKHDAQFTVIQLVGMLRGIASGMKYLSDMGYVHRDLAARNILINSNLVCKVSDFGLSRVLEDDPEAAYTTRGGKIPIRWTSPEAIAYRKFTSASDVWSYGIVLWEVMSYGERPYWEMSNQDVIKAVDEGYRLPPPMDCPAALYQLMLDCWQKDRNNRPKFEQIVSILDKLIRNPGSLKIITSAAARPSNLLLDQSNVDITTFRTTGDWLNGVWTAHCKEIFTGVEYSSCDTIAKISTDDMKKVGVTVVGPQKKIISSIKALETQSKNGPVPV
T4 sequence (Q13188 whole entry): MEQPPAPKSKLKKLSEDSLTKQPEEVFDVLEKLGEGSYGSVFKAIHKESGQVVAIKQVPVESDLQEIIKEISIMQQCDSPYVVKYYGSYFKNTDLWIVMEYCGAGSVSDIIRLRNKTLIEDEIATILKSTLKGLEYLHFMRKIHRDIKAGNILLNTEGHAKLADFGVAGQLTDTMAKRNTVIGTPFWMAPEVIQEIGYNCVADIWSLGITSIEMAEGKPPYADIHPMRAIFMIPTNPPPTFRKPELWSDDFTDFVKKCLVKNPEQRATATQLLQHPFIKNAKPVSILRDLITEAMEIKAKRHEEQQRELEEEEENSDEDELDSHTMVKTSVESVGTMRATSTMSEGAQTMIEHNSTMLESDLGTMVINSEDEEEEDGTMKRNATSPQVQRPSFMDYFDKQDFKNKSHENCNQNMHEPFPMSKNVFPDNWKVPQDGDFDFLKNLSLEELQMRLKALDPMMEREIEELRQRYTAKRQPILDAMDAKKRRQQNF

Structure (SMILES): COc1cc2c(cn1)N(C)C(=O)[C@@H](NC(=O)c1nc3n(n1)[C@H](c1ccccc1)CC3)CC2 [GNE684, (S)-N-((S)-7-methoxy-1-methyl-2-oxo-2,3,4,5-tetrahydro-1H-pyrido[3,4-b]azepin-3-yl)-5-phenyl-6,7-dihydro-5H-pyrrolo[1,2-b][1,2,4]triazole-2-carboxamide]
- inhibition at 10 µM (p70S6K): 10%
- inhibition at 10 µM (TYK2): 3.5%
- inhibition at 10 µM (MEK1): -7.5%
- inhibition at 10 µM (EGFR): 2.5%
- inhibition at 10 µM (MAPKAPK2): 4.5%
- inhibition at 10 µM (CSK): -1.5%
- inhibition at 10 µM (FLT3): 10%
- inhibition at 10 µM (p38-gamma): 7%
- inhibition at 10 µM (MST2): 5%
- inhibition at 10 µM (EPHA1): 9.5%
- inhibition at 10 µM (LRRK2): -19.5%
- inhibition at 10 µM (PKC_zeta): -2.5%
- inhibition at 10 µM (CDK1/cyclinB): -0.5%
- inhibition at 10 µM (TTK): -2.5%
- inhibition at 10 µM (PRAK): 2.5%
- inhibition at 10 µM (HIPK1): 0%
- inhibition at 10 µM (GSK3_alpha): 5%
- inhibition at 10 µM (RIPK2): 2%
- inhibition at 10 µM (DNA-PK): 4%
- inhibition at 10 µM (NEK4): 4.5%
- inhibition at 10 µM (MARK1): 6.5%
- inhibition at 10 µM (AKT2): 4.5%
- inhibition at 10 µM (EPHA3): -3.5%
